According to the NIST ThermoML archive (doi:10.1016/j.fluid.2012.06.014):
Numbers after ± are expanded uncertainties.

Conditions: for viscosity / mass density: 101.33 kPa, Liquid; for viscosity: Capillary tube (Ostwald / Ubbelohde) method; for mass density: Vibrating tube method

CCCCCCn1cc[n+](C)c1.N#C[B-](C#N)(C#N)C#N [1-hexyl-3-methylimidazolium tetracyanoborate]
Conditions | mass density [kg/m3] | viscosity [mPa·s]
293.15 K | 993.4 ± 0.2 | 66.61 ± 0.82
298.15 K | 989.8 ± 0.2 | 49.8 ± 0.65
303.15 K | 986.2 ± 0.2 | 38.92 ± 0.47
308.15 K | 982.7 ± 0.2 | 31.04 ± 0.37
313.15 K | 979.1 ± 0.2 | 25.2 ± 0.3
318.15 K | 975.6 ± 0.2 | 20.8 ± 0.26
323.15 K | 972.1 ± 0.2 | 17.41 ± 0.23
328.14 K | 968.6 ± 0.2 | 14.76 ± 0.21
333.14 K | 965.2 ± 0.2 | 12.66 ± 0.2
338.14 K | 961.7 ± 0.2 | 10.97 ± 0.19
343.14 K | 958.3 ± 0.2 | 9.584 ± 0.18
348.14 K | 954.9 ± 0.2 | 8.445 ± 0.17
353.15 K | 951.5 ± 0.2 | 7.497 ± 0.17
358.14 K | 948.1 ± 0.2 | 6.701 ± 0.17
363.14 K | 944.8 ± 0.2 | 6.026 ± 0.17

Conditions | surface tension liquid-gas [mN/m]
298.15 K, Pendant drop shape | 41.1 ± 0.7
